Results from paper PMC8476055, “Synthesis and Biological Activity of Triterpene–Coumarin Conjugates” (Journal of Natural Products, 2021).

Experiments:
[1] = MTT assay, nontumor WRL68 cells; assay type: cell-based, human; settings: human, WRL68 normal embryo liver cells; at the compound's IC50 concentration for Hep G2 cancer cells
Text: (§1) Only MA conjugates 7 and 10 were selected to compare the growth inhibitory effects in the three nontumor cell lines (HPF, IEC-18, and WRL68) versus the three cancer cell lines (B16–F10, HT29, and Hep G2). Therefore, the cytotoxic effects on B16–F10 murine melanoma cells were compared with those of HPF normal human epithelial lung fibroblasts, with similar tissue. Similarly, the cytotoxic effects of these conjugates on HT29 colon cancer cells and Hep G2 hepatoma cells were compared with those of nontumor cells of the same tissue, such as IEC-18 normal rat ileum cells and WRL68 normal human embryo liver cells, respectively.
(§2) […] ATTC HTB-38), Hep G2 human hepatocyte carcinoma cells (ECACC 85011430), nontumor human epithelial lung fibroblast cells HPF (ScienCell catalog (cat.) no. 3300), nontumor rat ileum cells IEC-18 (ECACC no. 88011801), and nontumor human embryo liver cells (ECACC 89121403) were cultured in DMEM medium supplemented with 2 mM glutamine, 10% heat-inactivated fetal bovine serum (FCS), 10.000 units/mL penicillin, and […]. These cells were incubated at 37 °C in an atmosphere of 5% CO2 and 95% humidity. The culture media were changed every 48 h, and the confluent cultures were separated with a trypsin solution (0.25% EDTA). Subconfluent monolayer cells were used in all experiments. All cell lines used were provided by the cell bank of the University of Granada (Spain).
(§3) The effect of the synthesized compounds on the viability of tumor cells was assessed using an MTT assay, based on the ability of living cells to cleave the tetrazolium ring, thus producing formazan, which absorbs at 570 nm. The MA conjugates (1–12) were assayed against the selected cancer cell lines. For an evaluation of the cytotoxic effects of these compounds, the cells were seeded in 96-well plates at an initial density of 5 × 10^3 B16–F10 cells, 6 × 10^3 HT29 cells, 15 × 10^3 Hep G2 cells, 8 × 10^3 HPF cells, 15 × 10^3 IEC-18 cells, and 11 × 10^3 WRL68 cells, per well. After incubation for 24 h, the cells were treated with the synthesized compounds in triplicate, at different concentrations (0–200 μg/mL), and incubated for 72 h. Thereafter, 100 μL of MTT solution (0.5 mg/mL) were added to each well. After 2 h of incubation, the cells were washed twice with phosphate buffered saline (PBS), and the formazan was resuspended in 100 μL of DMSO. Relative cell viability, with respect to untreated control cells, was measured by absorbance at 550 nm on an ELISA plate reader (Tecan Sunrise MR20-301, TECAN, Austria). […] These experiments were measured and compared to the control after 72 h of treatment.

[2] = test system: WRL68 normal human embryo liver cells; experiment: MTT assay, nontumor WRL68 cells; assay type: cell-based; settings: Homo sapiens, WRL68; MTT, untreated control = 100% viability; read-out: IC50, growth inhibition of WRL68 non-tumor cells
Text: as §1, §2, §3

Row | SMILES | viability at 72 h [1] | IC50 [2]
1 | CC1(C)CC[C@]2(C(=O)NCCCNC(=O)/C=C/c3ccc(O)cc3)CC[C@]3(C)C(=CC[C@@H]4[C@@]5(C)C[C@@H](O)[C@H](O)C(C)(C)[C@@H]5CC[C@]43C)[C@@H]2C1 [Compound 7, 2α,3β-Dihydroxy-N-(3′-((E)-3″-(4‴-hydroxyphenyl)acrylamido)propyl)olean-12-en-28-amide] | 61.4 ± 1.3% | 16.3 ± 0.9 µM
2 | CC1(C)CC[C@]2(C(=O)O)CC[C@]3(C)C(=CC[C@@H]4[C@@]5(C)C[C@@H](OC(=O)c6cc7ccccc7oc6=O)[C@H](OC(=O)c6cc7ccccc7oc6=O)C(C)(C)[C@@H]5CC[C@]43C)[C@@H]2C1 [Compound 10] | 87.4 ± 1.7% | 6.2 µM
